Results published in patent US20020131997A1, “Method for treating hematologic disorders with water insoluble 20 (S)-camptothecin” (priority 2000, published 2002).

Experiments:
MDS of the RAEB type = assay: Clinical treatment of patient with MDS (RAEB type) with oral 9NC gelules; type: in vivo, human; conditions: one patient, starting dose 2 mg/m^2 daily for 5 days every week
From the text: (§1) Twenty five patients with hematologic disorders were admitted for the treatment with 9NC. Among them, 9 patients had Philadelphia chromosome (Ph)-negative bcr/abl-negative CML; 8 patients had Philadelphia chromosome (Ph)-positive CML (6 in chronic phase and 2 in accelerated phase); 7 patients had CMML; and one had MDS (RAEB, refractory anemia with excess blasts). Median age of patients was 65 years, ranging from age 29 to age 77. Median white blood cell (WBC) counts was 25.2×10^9/L (range: 4.5-76×10^9/L); and median platelet count was 223×10^9/L (range: 23-1042×10^9/L). Among the patients for the treatment, 14 patients had splenomegaly, with median of 10.5 cms below costal margin (range: 1-13 cms). The 8 patients with Ph-positive CML were previously treated with interferon (IFN). Except for 5 patients, 12 other patients were also previously treated with IFN. Prior to the treatment of the present invention, the patients were off chemotherapy using other anticancer drugs for 2 weeks and recovered from toxicity of that chemotherapy.
The dosing schedule was designed as the following. The drug product, 9NC gelules, are orally administered into patients for 5 consecutive days every week. Four weeks of treatment with 9NC oral dosage defines one course of treatment. Courses are repeated every 4-6 weeks, depending on patient response and recovery of WBC and platelet counts. […]

[1] = Stability of 9NC at room temperature, activity determined by HPLC; type: physicochemical; conditions: left at room temperature (25° C.) for 2 months
Description: 9-nitro-20(S)-camptothecin (9NC) was encapsulated in oral dosage of gelules containing 1 mg 9NC by a registered pharmacist. When 9NC is left at room temperature (25° C.) for 2 months, the loss of activity is minimal and has been estimated to be less than 5%+4.6%. Determination of activity has been done by HPLC. The gelules are preferably stored in freezers.

mice = assay: Toxicology studies in mice; type: in vivo
dogs = assay: Toxicology studies in dogs; type: in vivo
CMML = assay: Clinical treatment of patients with CMML with oral 9NC gelules; type: in vivo, human
From the text: as §1
(§2) The dosing schedule was designed as the following. The drug product, 9NC gelules, are orally administered into patients for 5 consecutive days every week. Four weeks of treatment with 9NC oral dosage defines one course of treatment. Courses are repeated every 4-6 weeks, depending on patient response and recovery of WBC and platelet counts. The total daily 9NC dose is given in 2 equal divided doses (e.g. 8 a.m. and 8 p.m.).
(§3) The dose of treatment with 9NC was designed to be modified at 5 dose levels according to myelosuppression and extramedullary toxicity. The starting dose schedule at level 0 is 2.0 mg/m^2 9NC orally daily, 5 days every week. Dose level +1 is 2.5 mg/m^2 9NC orally daily, 5 days every week. Dose level +2 is 3.0 mg/m^2 9NC orally daily, 5 days every week. Dose level −1 is 1.5 mg/m^2 9NC orally daily, 5 days every week. Dose level −2 is 1.5 mg/m^2 9NC orally daily, 4 days every week.
(§4) During the course of treatment, if there is no response to 9NC and the patient's hematologic toxicity is less than grade II, the dose level is increase by 1 level. If there is no response to 9NC and the patient's hematologic toxicity is at grade II, the dose level stays at the same level. If there is response to 9NC and the patient's hematologic toxicity is at grade III or IV, the dose level is decreased by 1 level. If there is no response to 9NC and the patient's hematologic toxicity is at grade III or IV, the patient is off the treatment with 9NC.
If low hematologic counts is due to myelosuppression, not disease, subsequent courses can be delayed until WBC >2.0×10^9/L and platelets >80×10^9/L. If low counts are attributed to persistent disease, subsequent courses are started regardless of the counts. […]

Ph-positive CML = assay: Clinical treatment of patients with Ph-positive CML with oral 9NC gelules; type: in vivo, human; conditions: of 8 patients
From the text: as §1, §2
The dose of treatment with 9NC was designed to be modified at 5 dose levels according to myelosuppression and extramedullary toxicity. The starting dose schedule at level 0 is 2.0 mg/m^2 9NC orally daily, 5 days every week. Dose level +1 is 2.5 mg/m^2 9NC orally daily, 5 days every week. Dose level +2 is 3.0 mg/m^2 9NC orally daily, 5 days every week. Dose level −1 is 1.5 mg/m^2 9NC orally daily, 5 days every week. Dose level −2 is 1.5 mg/m^2 9NC orally daily, 4 days every week. […]

[2] = system: Ph-negative bcr/abl-negative CML; assay: Clinical treatment of patients with Ph-negative bcr/abl-negative CML with oral 9NC gelules; type: in vivo, human
From the text: as §1, §2, §3, §4
If low hematologic counts is due to myelosuppression, not disease, subsequent courses can be delayed until WBC >2.0×10^9/L and platelets >80×10^9/L. If low counts are attributed to persistent disease, subsequent courses are started regardless of the counts.
The criteria for response to patients with CML are as follows.
Complete hematologic remission (CHR): Normalization for at least 4 weeks of the bone marrow (less than 5% blasts) and peripheral blood with WBC <10×10^9/L and no peripheral blasts, promyelocytes or myelocytes. This is in addition to disappearance of all signs and symptoms of the disease.
Partial hematologic remission (PHR): CHR except for persistence of immature cells (myelocytes, metamyelocytes), or splenomegaly <50% of pretreatment, or thrombocytosis >450×10^9/L but <50% of pretreatment.
Gelules of 9NC were orally administrated into the 9 patients with Ph-negative bcr/abl-negative CML. The starting dose was 2 mg/m^2 daily for 5 days every week. Doses were adjusted according to myelosuppression and extramedullary toxicity as described above. […] Thus, the objective response (OR) was 6/9.

[3] = of 9 patients, oral, starting dose 2 mg/m^2 daily for 5 days every week

For CC[C@@]1(O)C(=O)OCc2c1cc1n(c2=O)Cc2cc3c([N+](=O)[O-])cccc3nc2-1 [9NC, 9-nitro-20(S)-camptothecin], the “response by MDS criteria” value (MDS of the RAEB type) was “complete remission”, the loss of activity [1] was “less than 5%+4.6%” and the primary toxicity (mice) was “intestinal”. For the same molecule, the primary toxicity (dogs) was “intestinal”, the tolerability (dogs; 1.0 mg/kg/day, administered for over 2 months) was “well tolerated” and the “patients resistant to the treatment” value (CMML; of 7 patients) was 1 patient. For the same molecule, the “patients with hematologic improvement in WBC or splenomegaly” value (CMML; of 7 patients) was 4 patients, the “patients with partial remission” value (CMML; of 7 patients, oral, starting dose 2 mg/m^2 daily for 5 days every week) was 2 patients and the “objective response (OR)” value (CMML; responders/patients) was 6/7. The “patients who did not show response to the treatment” value (Ph-positive CML) was 6 patients, the “patients with complete response hematologically and cytogenetically” value (Ph-positive CML; oral, starting dose 2 mg/m^2 daily for 5 days every week) was 1 patient and the “patients with minor spleen response” value (Ph-positive CML; patient in accelerated phase) was 1 patient. The spleen response ([2]; in all 8 patients with splenomegaly) was “at least minor spleen response”, the “patients resistant to the treatment” value [2, 3] was 2 patients and the patients stable [2, 3] was 1 patient. The “patients with complete remission” value [2, 3] was 2 patients, the “patients with partial remission” value [2, 3] was 4 patients and the “objective response (OR)” value ([2]; responders/patients, oral, starting dose 2 mg/m^2 daily for 5 days every week) was 6/9.
